# Assays:
# Experiment in all cases: relative viability (nuclei count vs DMSO), 5 days (fraction); higher = more cells survive
# [1] = test system: NCI-H1915
# Outline: (§1)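 Lung cancer cell lines in 1536-well plates were dosed by pin tool the day after seeding, either with one drug alone or with a fixed anchor-drug dose plus five library-drug doses (not always all listed) in √10 steps. After 5 days, cells were fixed and their nuclei stained in one step (final 0.05% Triton X-100, 1% formaldehyde, 1 ug/ml Hoechst), then counted on 4× images. Relative viability is the nuclei count in treated wells divided by that in vehicle wells. Values are medians of duplicate plates.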
# [2] = test system: NCI-H358
# Outline: as §1
# [3] = test system: HCC-44
# Outline: as §1
# [4] = test system: SK-MES-1
# Outline: as §1
# [5] = test system: NCI-H2023
# Outline: as §1
# [6] = test system: NCI-H1395
# Outline: as §1
# [7] = test system: COR-L23
# Outline: as §1
# [8] = test system: LOU-NH91
# Outline: as §1
# [9] = test system: NCI-H2087
# Outline: as §1
# [10] = test system: NCI-H1734
# Outline: as §1
# [11] = test system: EKVX
# Outline: as §1
# [12] = test system: A-427
# Outline: as §1
# [13] = test system: HCC-366
# Outline: as §1
# [14] = test system: NCI-H838
# Outline: as §1
# [15] = test system: NCI-H3122
# Outline: as §1
# [16] = test system: NCI-H661
# Outline: as §1
# [17] = test system: EPLC-272H
# Outline: as §1
# [18] = test system: NCI-H650
# Outline: as §1
# [19] = test system: HCC-78
# Outline: as §1
# [20] = test system: NCI-H596
# Outline: as §1
# [21] = test system: HOP-62
# Outline: as §1
smiles,measurement,setting,value
O=c1[nH]c2ccccc2n1C1CCN(CCCC(c2ccc(F)cc2)c2ccc(F)cc2)CC1 [Pimozide] + Cc1nc(NC(=O)N2CCC[C@H]2C(N)=O)sc1-c1ccnc(C(C)(C)C(F)(F)F)c1 [Alpelisib] (partner 2 µM),relative viability,[1]; first compound 0.08 µM,1.1
same,relative viability,[1]; first compound 0.253 µM,1.06
same,relative viability,[1]; first compound 0.8 µM,0.837
same,relative viability,[1]; first compound 2.53 µM,1.08
same,relative viability,[1]; first compound 8 µM,0.997
same,relative viability,[2]; first compound 0.08 µM,0.761
same,relative viability,[2]; first compound 0.253 µM,0.775
same,relative viability,[2]; first compound 0.8 µM,0.786
same,relative viability,[2]; first compound 2.53 µM,0.808
same,relative viability,[2]; first compound 8 µM,0.852
same,relative viability,[3]; first compound 0.08 µM,0.856
same,relative viability,[3]; first compound 0.253 µM,0.751
same,relative viability,[3]; first compound 0.8 µM,0.802
same,relative viability,[3]; first compound 2.53 µM,0.736
same,relative viability,[3]; first compound 8 µM,0.677
same,relative viability,[4]; first compound 0.08 µM,0.809
same,relative viability,[4]; first compound 0.253 µM,0.966
same,relative viability,[4]; first compound 0.8 µM,0.874
same,relative viability,[4]; first compound 2.53 µM,0.837
same,relative viability,[4]; first compound 8 µM,0.842
same,relative viability,[5]; first compound 0.08 µM,0.524
same,relative viability,[5]; first compound 0.253 µM,0.632
same,relative viability,[5]; first compound 0.8 µM,0.533
same,relative viability,[5]; first compound 2.53 µM,0.535
same,relative viability,[5]; first compound 8 µM,0.461
same,relative viability,[6]; first compound 0.08 µM,1.31
same,relative viability,[6]; first compound 0.253 µM,0.958
same,relative viability,[6]; first compound 0.8 µM,1.06
same,relative viability,[6]; first compound 2.53 µM,1.16
same,relative viability,[6]; first compound 8 µM,0.952
same,relative viability,[7]; first compound 0.08 µM,0.783
same,relative viability,[7]; first compound 0.253 µM,0.862
same,relative viability,[7]; first compound 0.8 µM,0.763
same,relative viability,[7]; first compound 2.53 µM,0.74
same,relative viability,[7]; first compound 8 µM,0.695
same,relative viability,[8]; first compound 0.08 µM,0.459
same,relative viability,[8]; first compound 0.253 µM,0.731
same,relative viability,[8]; first compound 0.8 µM,0.723
same,relative viability,[8]; first compound 2.53 µM,0.733
same,relative viability,[8]; first compound 8 µM,0.7
same,relative viability,[9]; first compound 0.08 µM,0.847
same,relative viability,[9]; first compound 0.253 µM,1.1
same,relative viability,[9]; first compound 0.8 µM,1.01
same,relative viability,[9]; first compound 2.53 µM,0.975
same,relative viability,[9]; first compound 8 µM,0.89
same,relative viability,[10]; first compound 0.08 µM,0.675
same,relative viability,[10]; first compound 0.253 µM,0.664
same,relative viability,[10]; first compound 0.8 µM,0.68
same,relative viability,[10]; first compound 2.53 µM,0.744
same,relative viability,[10]; first compound 8 µM,0.769
same,relative viability,[11]; first compound 0.253 µM,0.806
same,relative viability,[11]; first compound 0.8 µM,0.934
same,relative viability,[11]; first compound 2.53 µM,0.853
same,relative viability,[11]; first compound 8 µM,0.856
same,relative viability,[12]; first compound 0.08 µM,1.08
same,relative viability,[12]; first compound 0.253 µM,1.05
same,relative viability,[12]; first compound 0.8 µM,1.14
same,relative viability,[12]; first compound 2.53 µM,0.987
same,relative viability,[12]; first compound 8 µM,1.01
same,relative viability,[13]; first compound 0.08 µM,0.354
same,relative viability,[13]; first compound 0.253 µM,0.381
same,relative viability,[13]; first compound 0.8 µM,0.406
same,relative viability,[13]; first compound 2.53 µM,0.425
same,relative viability,[13]; first compound 8 µM,0.518
same,relative viability,[14]; first compound 0.08 µM,0.95
same,relative viability,[14]; first compound 0.253 µM,0.98
same,relative viability,[14]; first compound 0.8 µM,0.967
same,relative viability,[14]; first compound 2.53 µM,1.03
same,relative viability,[14]; first compound 8 µM,1.04
same,relative viability,[15]; first compound 0.08 µM,0.833
same,relative viability,[15]; first compound 0.253 µM,0.784
same,relative viability,[15]; first compound 0.8 µM,0.784
same,relative viability,[15]; first compound 2.53 µM,0.784
same,relative viability,[15]; first compound 8 µM,0.795
same,relative viability,[16]; first compound 0.08 µM,0.759
same,relative viability,[16]; first compound 0.253 µM,0.594
same,relative viability,[16]; first compound 0.8 µM,0.592
same,relative viability,[16]; first compound 2.53 µM,0.494
same,relative viability,[16]; first compound 8 µM,0.766
same,relative viability,[17]; first compound 0.08 µM,0.838
same,relative viability,[17]; first compound 0.253 µM,0.962
same,relative viability,[17]; first compound 0.8 µM,0.894
same,relative viability,[17]; first compound 2.53 µM,0.912
same,relative viability,[17]; first compound 8 µM,0.771
same,relative viability,[18]; first compound 0.08 µM,1.04
same,relative viability,[18]; first compound 0.253 µM,1.05
same,relative viability,[18]; first compound 0.8 µM,1.09
same,relative viability,[18]; first compound 2.53 µM,1.07
same,relative viability,[18]; first compound 8 µM,1.02
same,relative viability,[19]; first compound 0.08 µM,0.406
same,relative viability,[19]; first compound 0.253 µM,0.366
same,relative viability,[19]; first compound 0.8 µM,0.294
same,relative viability,[19]; first compound 2.53 µM,0.293
same,relative viability,[19]; first compound 8 µM,0.329
same,relative viability,[20]; first compound 0.08 µM,0.481
same,relative viability,[20]; first compound 0.253 µM,0.476
same,relative viability,[20]; first compound 0.8 µM,0.374
same,relative viability,[20]; first compound 2.53 µM,0.481
same,relative viability,[20]; first compound 8 µM,0.392
same,relative viability,[21]; first compound 0.08 µM,1.2
same,relative viability,[21]; first compound 0.253 µM,0.783
same,relative viability,[21]; first compound 2.53 µM,0.904
same,relative viability,[21]; first compound 8 µM,0.794
